Laboratory results from PubChem BioAssay AID248 (DTP/NCI, 2004).
Several values for one entry are separate records, joined by “and”; a condition that tells them apart may be missing. Identical values can stand only once. Toxic doses and inconclusive results are not listed. Cut-off read from the data, not from the text of the source: active = T/C of 150% or more; inactive = T/C below 125%.

System: L1210 leukemia ip in BDF1 mice, survival T/C
Assay: NCI In Vivo Anticancer Drug Screen. Data for tumor model L1210 Leukemia (intraperitoneal) in B6D2F1 (BDF1) mice
Settings: endpoint: mean survival time, higher = longer survival
Method in brief: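 Tumor cells were implanted, animals were treated, and survival was followed. The result divides the treated measurement by the vehicle-control measurement.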

[1] = dose: 100.0 mg/kg/injection, schedule: Q04DX003 (ip), vehicle: saline with Tween-80
[2] = dose: 200.0 mg/kg/injection, schedule: Q04DX003 (ip), vehicle: saline with Tween-80
[3] = dose: 400.0 mg/kg/injection, schedule: Q04DX003 (ip), vehicle: saline with Tween-80
[4] = dose: 75.0 mg/kg/injection, schedule: Q01DX001 (ip), vehicle: other
[5] = dose: 150.0 mg/kg/injection, schedule: Q01DX001 (ip), vehicle: other
[6] = dose: 100.0 mg/kg/injection, schedule: Q01DX009 (ip), vehicle: saline with Tween-80
[7] = dose: 200.0 mg/kg/injection, schedule: Q01DX009 (ip), vehicle: saline with Tween-80

Measured: T/C

COc1cc(C(=O)NO)cc(OC)c1OC
inactive: [1] 97 % of control and 104 % of control | [2] 97 % of control and 110 % of control | [3] 97 % of control and 100 % of control

CC(C)(C)C(=O)CC(=O)C(C)(C)C.CC(C)(C)C(=O)CC(=O)C(C)(C)C.[Zn]
inactive: [1] 97 % of control | [2] 95 % of control

O=C(COc1cc(Cl)c(Cl)cc1Cl)Nc1ccc(Cl)cc1
inactive: dose: 100.0 mg/kg/injection, schedule: Q04DX002 (ip), vehicle: Klucel (hydroxypropylcellulose) (HPC) 103 % of control | dose: 200.0 mg/kg/injection, schedule: Q04DX002 (ip), vehicle: Klucel (hydroxypropylcellulose) (HPC) 106 % of control | dose: 400.0 mg/kg/injection, schedule: Q04DX002 (ip), vehicle: Klucel (hydroxypropylcellulose) (HPC) 103 % of control

CC(CNC1CCCCC1)OC(=O)c1ccc([N+](=O)[O-])cc1 (configuration not stated)
inactive: dose: 75.0 mg/kg/injection, schedule: Q01DX001 (ip), vehicle: acetone 103 % of control | dose: 150.0 mg/kg/injection, schedule: Q01DX001 (ip), vehicle: acetone 93 % of control | dose: 300.0 mg/kg/injection, schedule: Q01DX001 (ip), vehicle: acetone 97 % of control

O=C(C[n+]1c(Cl)ccc2ccccc21)c1ccccc1
inactive: [4] 94 % of control | [5] 100 % of control

COCCNC(=O)NS(=O)(=O)c1ccc(C)cc1
inactive: [1] 98 % of control | [2] 98 % of control | [3] 96 % of control

Cc1cccnc1NC(=O)NCCCl
inactive: dose: 100.0 mg/kg/injection, schedule: Q01DX001 (ip), vehicle: carboxymethylcellulose (CMC) 101 % of control | dose: 100.0 mg/kg/injection, schedule: Q01DX009 (ip), vehicle: Klucel (hydroxypropylcellulose) (HPC) 92 % of control | dose: 100.0 mg/kg/injection, schedule: Q04DX003 (ip), vehicle: saline 98 % of control | dose: 200.0 mg/kg/injection, schedule: Q01DX001 (ip), vehicle: carboxymethylcellulose (CMC) 103 % of control | dose: 200.0 mg/kg/injection, schedule: Q01DX009 (ip), vehicle: Klucel (hydroxypropylcellulose) (HPC) 93 % of control | dose: 200.0 mg/kg/injection, schedule: Q04DX003 (ip), vehicle: saline 97 % of control | dose: 400.0 mg/kg/injection, schedule: Q01DX001 (ip), vehicle: carboxymethylcellulose (CMC) 103 % of control | dose: 400.0 mg/kg/injection, schedule: Q04DX003 (ip), vehicle: saline 89 % of control

O=C(Nc1ccccc1)OCCc1c2ccccc2[n+]([O-])c2ccccc12
inactive: [1] 91 % of control | [2] 91 % of control | [3] 102 % of control

Cc1nc(-c2ccccc2)nc2c1CCO2
inactive: [6] 100 % of control | [7] 107 % of control

CCCCCc1nc2c(c3c1CCCC3)CCCC2
inactive: [4] 102 % of control | [5] 96 % of control

CC1=C/C(=N/N=c2\ccn(O)cc2C)C=CC1=N
inactive: dose: 50.0 mg/kg/injection, schedule: Q04DX002 (sc), vehicle: saline with Tween-80 100 % of control | dose: 100.0 mg/kg/injection, schedule: Q04DX002 (sc), vehicle: saline with Tween-80 100 % of control | dose: 200.0 mg/kg/injection, schedule: Q04DX002 (sc), vehicle: saline with Tween-80 100 % of control | dose: 400.0 mg/kg/injection, schedule: Q04DX002 (sc), vehicle: saline with Tween-80 93 % of control

CCCCCCCCCCCCN1CC1
inactive: dose: 10.0 mg/kg/injection, schedule: Q01DX009 (ip), vehicle: Klucel (hydroxypropylcellulose) (HPC) 108 % of control | dose: 20.0 mg/kg/injection, schedule: Q01DX009 (ip), vehicle: Klucel (hydroxypropylcellulose) (HPC) 109 % of control

FC(F)(F)c1cccc(B2OCCNCCO2)c1
inactive: [1] 106 % of control | [2] 95 % of control

COc1ccc2c(c1OC)C1(CCN(C)C)CC(=O)CCC1C=C2 (configuration not stated)
inactive: dose: 3.12 mg/kg/injection, schedule: Q01DX009 (ip), vehicle: Klucel (hydroxypropylcellulose) (HPC) 103 % of control | dose: 6.25 mg/kg/injection, schedule: Q01DX009 (ip), vehicle: Klucel (hydroxypropylcellulose) (HPC) 95 % of control | dose: 12.5 mg/kg/injection, schedule: Q01DX009 (ip), vehicle: Klucel (hydroxypropylcellulose) (HPC) 98 % of control | dose: 25.0 mg/kg/injection, schedule: Q01DX009 (ip), vehicle: Klucel (hydroxypropylcellulose) (HPC) 86 % of control | dose: 100.0 mg/kg/injection, schedule: Q04DX003 (ip), vehicle: Klucel (hydroxypropylcellulose) (HPC) 98 % of control

Cc1ccc(NC(=O)COc2ccc(Cl)cc2Cl)c(C)c1
inactive: [6] 104 % of control | [1] 89 % of control | [7] 101 % of control | [2] 91 % of control | dose: 400.0 mg/kg/injection, schedule: Q01DX009 (ip), vehicle: saline with Tween-80 96 % of control | [3] 91 % of control

Cc1c(CCO)c(=O)n2n1CCCC2
inactive: [4] 108 % of control | [5] 100 % of control
